Test results as given in patent US20180093956A1, “SUBSTITUTED PHTHALAZINES” (AbbVie Inc., priority 2015, published 2018).

Legend:
[1] = tested on: H4K20me3 in PC-3 cells (SUV420H1 cellular activity); assay: H4K20me3 Cellular PD Assay (high content microscopy); assay type: cell-based; conditions: Homo sapiens, treated for 72 hours, H4K20me3 immunofluorescence, read-out: H4K20me3 Inhibition EC50
Description: A high content microscopy-based PD assay was used to analyze the decrease of H4K20me3 upon inhibition of SUV420H1 cellular activity. PC-3 cells were plated at 3,000 cells per well in black Collagen I coated 96-well plates (Perkin Elmer, #6005810) in RPMI supplemented with 10% heat inactivated FBS, 1% sodium pyruvate and 1% non-essential amino acids in a 37° C. tissue culture incubator. At 24 hours post seeding, cells were treated with the indicated compounds for 72 hours in an 8-point dose response using half log dilutions from […] and then fixed in 2% formaldhyde (Polysciences, Inc., #04018) for 10 minutes at room temperature. Cells were washed in PBS and permeablized in 0.1% Triton X-100 for 10 minutes at room temperature. After blocking in 1% BSA (Sigma, #A7030) in PBS for 1 hour at room temperature, a mouse monoclonal antibody directed toward H4K20me3 (Santa Cruz, #sc-134216) in antibody dilution buffer (0.3% BSA in PBS) was added for 16 hours at 4° C. Cells were then washed 3 times in PBS and an Alexa Fluor 555 conjugated goat anti-mouse (Life Technologies #A-21424) secondary antibody was added for 1 hour at room temperature. Hoechst 33342 diluted 1:10000 (Life Technologies #H3570) was also added during the secondary antibody incubation. Cells were washed 3 times in PBS and stored in PBS at 4° C. Fluorescent images were acquired within 24 hours on a Cell Insight (Thermo Fisher Scientific) using the Target Activation algorithm. Objects were identified via nuclear Hoescht staining, and changes in average mean intensity in the fluorescent signals of H4K20me3 were quantified using the HCS View software platform (Thermo Fisher Scientific).

SUV420H1 enzyme = SUV420H1 enzyme (Homo sapiens, UniProt Q4FZB7); assay: TR-FRET SAH SUV420H1 enzyme inhibition assay; assay type: biochemical; conditions: Histone Peptide H4(8-30)me1 and SAM, TR-FRET detection of SAH, read-out: TR-FRET SAH_SUV420H1 IC50
Chain of SUV420H1 enzyme (Q4FZB7 whole entry): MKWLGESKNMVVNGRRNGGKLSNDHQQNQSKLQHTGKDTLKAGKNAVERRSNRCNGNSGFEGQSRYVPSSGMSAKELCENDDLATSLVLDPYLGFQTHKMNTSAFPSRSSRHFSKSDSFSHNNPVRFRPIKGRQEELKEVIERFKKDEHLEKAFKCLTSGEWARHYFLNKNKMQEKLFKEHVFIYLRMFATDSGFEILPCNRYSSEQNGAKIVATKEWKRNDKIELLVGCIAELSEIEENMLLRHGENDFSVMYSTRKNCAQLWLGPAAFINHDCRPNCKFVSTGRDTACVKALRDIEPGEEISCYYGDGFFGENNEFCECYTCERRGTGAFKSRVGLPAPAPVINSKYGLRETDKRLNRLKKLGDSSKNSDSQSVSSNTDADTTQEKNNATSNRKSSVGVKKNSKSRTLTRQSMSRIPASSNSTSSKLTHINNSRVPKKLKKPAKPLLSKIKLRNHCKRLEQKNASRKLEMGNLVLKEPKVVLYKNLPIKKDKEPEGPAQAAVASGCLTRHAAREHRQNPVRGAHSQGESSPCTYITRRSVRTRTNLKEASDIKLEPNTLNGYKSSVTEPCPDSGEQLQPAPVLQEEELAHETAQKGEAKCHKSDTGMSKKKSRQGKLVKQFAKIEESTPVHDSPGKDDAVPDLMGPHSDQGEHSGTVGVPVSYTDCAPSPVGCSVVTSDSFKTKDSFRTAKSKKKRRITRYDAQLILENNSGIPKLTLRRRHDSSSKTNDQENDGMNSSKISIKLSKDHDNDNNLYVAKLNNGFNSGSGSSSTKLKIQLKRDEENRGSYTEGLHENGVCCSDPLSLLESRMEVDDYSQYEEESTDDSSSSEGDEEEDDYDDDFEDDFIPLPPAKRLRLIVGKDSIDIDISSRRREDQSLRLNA
Description: Test compounds were dispensed by a Labcyte Echo in 384-well low volume assay plates with 3-fold serial dilutions from 50 μM to 0.00075 μM. 5 μL of SUV420H1 enzyme (Abbvie) at 90 nM was added to all wells except for the no enzyme control wells and incubated for 30 minutes at room temperature before 5 μL of Histone Peptide H4(8-30)me1 (Anaspec) at 5 μM and SAM at 4 μM was added to all wells. The plates were incubated in a humidified chamber overnight at room temp and then 10 μL of the detection reagent that contained RIPA buffer (50 mM Tris-HCl, pH 8.0, 150 mM sodium chloride, 1.0% Igepal CA-630 (NP-40), 0.5% sodium deoxycholate and 0.1% sodium dodecyl sulfate) (Sigma) with 2 nM of Terbium chelate anti S-adenosyl-L-homocysteine (SAH) (Abbvie) antibody and Oregon Green labeled SAH at 4 nM was added. The plates were further incubated for 4 hours at room temperature. The plates were read in a Perkin Elmer Envision using a TR-FRET protocol with Excitation set at 335 nm and Emission at 520 and 495 nm. To generate dose response curves the data is normalized to percent inhibition by setting the average of the plus and minus enzyme control wells to 0% and 100% inhibition respectively. The ICso values for the compounds are generated by fitting the normalized data with Accelrys Assay Explorer 3.3 to a sigmoidal curve model using […], Y=(100*x^n)/(K^n+x^n), where Y is the measured response, x is the compound concentration, n is the Hill Slope and K is the IC50 and the lower and higher asymptotes are constrained to 0 and 100 respectively.

SMILES	EC50 [1]	IC50 (SUV420H1 enzyme)
Cn1cc(C(=O)N2CC=C(c3nnc(NC4CCCC4)c4cc(Cl)c(Cl)cc34)CC2)cn1 [Example 78, {4-[6,7-dichloro-4-(cyclopentylamino)phthalazin-1-yl]-3,6-dihydropyridin-1(2H)-yl}(1-methyl-1H-pyrazol-4-yl)methanone]	13100 nM	
NC1CCN(c2cc(-c3nnc(NC4CCCC4)c4cc(Cl)c(Cl)cc34)ccn2)C1 (centres unmarked) [Example 40, 4-[2-(3-aminopyrrolidin-1-yl)pyridin-4-yl]-6,7-dichloro-N-cyclopentylphthalazin-1-amine]	532 nM	229 nM
Cn1cc(NC(=O)c2nnc(NC3CCCC3)c3cc(Cl)c(Cl)cc23)cn1 [Example 54, 6,7-dichloro-4-(cyclopentylamino)-N-(1-methyl-1H-pyrazol-4-yl)phthalazine-1-carboxamide]	> 20000 nM	147 nM
Cn1ccc(-c2nnc(NC3CCCC3)c3cc(Cl)c(Cl)cc23)n1 [Example 4, 6,7-dichloro-N-cyclopentyl-4-(1-methyl-1H-pyrazol-3-yl)phthalazin-1-amine]	1160 nM	94.2 nM
Cn1cc(-c2nnc(NC3CCCC3)c3cc(Cl)c(Cl)cc23)cn1 [Example 5, 6,7-dichloro-N-cyclopentyl-4-(1-methyl-1H-pyrazol-4-yl)phthalazin-1-amine]	505 nM	111 nM
Clc1cc2c(NC3CCCC3)nnc(N3CCCCC3)c2cc1Cl [Example 8, 6,7-dichloro-N-cyclopentyl-4-(piperidin-1-yl)phthalazin-1-amine]	2920 nM	87.1 nM
Clc1cc2c(NC3CCCC3)nnc(-c3ccsc3)c2cc1Cl [Example 7, 6,7-dichloro-N-cyclopentyl-4-(thiophen-3-yl)phthalazin-1-amine]	1510 nM	75.3 nM
CC(C)(C)OC(=O)Cn1cc(-c2nnc(NC3CCCC3)c3cc(Cl)c(Cl)cc23)cn1 [Example 43, tert-butyl {4-[6,7-dichloro-4-(cyclopentylamino)phthalazin-1-yl]-1H-pyrazol-1-yl}acetate]	7910 nM	174 nM
O=C(Cn1cc(-c2nnc(NC3CCCC3)c3cc(Cl)c(Cl)cc23)cn1)N1CCC(O)CC1 [Example 64, 2-{4-[6,7-dichloro-4-(cyclopentylamino)phthalazin-1-yl]-1H-pyrazol-1-yl}-1-(4-hydroxypiperidin-1-yl)ethanone]	6570 nM	188 nM
CN(CCO)c1ccc(-c2nnc(NC3CCCC3)c3cc(Cl)c(Cl)cc23)cn1 [Example 26, 2-{[5-[6,7-dichloro-4-(cyclopentylamino)phthalazin-1-yl]pyridin-2-yl}(methyl)amino]ethanol]	4500 nM	389 nM
Clc1cc2c(NC3CCCC3)nnc(-c3ccnc(N4CCNCC4)c3)c2cc1Cl [Example 18, 6,7-dichloro-N-cyclopentyl-4-[2-(piperazin-1-yl)pyridin-4-yl]phthalazin-1-amine]	1050 nM	525 nM
CN1CCN(c2nnc(NC3CCCC3)c3cc(Cl)c(Cl)cc23)CC1 [Example 9, 6,7-dichloro-N-cyclopentyl-4-(4-methylpiperazin-1-yl)phthalazin-1-amine]	3430 nM	373 nM
CC(=O)N1CCN(C(=O)Cn2cc(-c3nnc(NC4CCCC4)c4cc(Cl)c(Cl)cc34)cn2)CC1 [Example 62, 1-(4-acetylpiperazin-1-yl)-2-{4-[6,7-dichloro-4-(cyclopentylamino)phthalazin-1-yl]-1H-pyrazol-1-yl}ethanone]	10500 nM	333 nM
OC1CCN(c2cc(-c3nnc(NC4CCCC4)c4cc(Cl)c(Cl)cc34)ccn2)CC1 [Example 29, 1-{4-[6,7-dichloro-4-(cyclopentylamino)phthalazin-1-yl]pyridin-2-yl}piperidin-4-ol]	3080 nM	470 nM
CN(C)c1ccc(-c2nnc(NC3CCCC3)c3cc(Cl)c(Cl)cc23)cn1 [Example 20, 6,7-dichloro-N-cyclopentyl-4-[6-(dimethylamino)pyridin-3-yl]phthalazin-1-amine]	9540 nM	415 nM
O=C(Cn1cc(-c2nnc(NC3CCCC3)c3cc(Cl)c(Cl)cc23)cn1)NCCO [Example 56, 2-{4-[6,7-dichloro-4-(cyclopentylamino)phthalazin-1-yl]-1H-pyrazol-1-yl}-N-(2-hydroxyethyl)acetamide]	6730 nM	165 nM
NC(=O)c1nnc(NC2CCCC2)c2cc(Cl)c(Cl)cc12 [Example 42, 6,7-dichloro-4-(cyclopentylamino)phthalazine-1-carboxamide]	2830 nM	127 nM
OCCNc1ccc(-c2nnc(NC3CCCC3)c3cc(Cl)c(Cl)cc23)cn1 [Example 30, 2-({5-[6,7-dichloro-4-(cyclopentylamino)phthalazin-1-yl]pyridin-2-yl}amino)ethanol]	465 nM	1050 nM
O=C(C1CC1)N1CC=C(c2nnc(NC3CCCC3)c3cc(Cl)c(Cl)cc23)CC1 [Example 70, cyclopropyl {4-[6,7-dichloro-4-(cyclopentylamino)phthalazin-1-yl]-3,6-dihydropyridin-1(2H)-yl}methanone]	15600 nM	
CS(=O)(=O)N1CC=C(c2nnc(NC3CCCC3)c3cc(Cl)c(Cl)cc23)CC1 [Example 67, 6,7-dichloro-N-cyclopentyl-4-[1-(methylsulfonyl)-1,2,3,6-tetrahydropyridin-4-yl]phthalazin-1-amine]		448 nM
CC(C)(C)OC(=O)N1CC=C(c2nnc(NC3CCCC3)c3cc(Cl)c(Cl)cc23)CC1 [Example 23, tert-butyl 4-[6,7-dichloro-4-(cyclopentylamino)phthalazin-1-yl]-3,6-dihydropyridine-1(2H)-carboxylate]		1510 nM
CC(=O)N1CC=C(c2nnc(NC3CCCC3)c3cc(Cl)c(Cl)cc23)CC1 [Example 25, 1-{4-[6,7-dichloro-4-(cyclopentylamino)phthalazin-1-yl]-3,6-dihydropyridin-1(2H)-yl}ethanone]		1100 nM
O=S1(=O)CCN(c2ccc(-c3nnc(NC4CCCC4)c4cc(Cl)c(Cl)cc34)cn2)CC1 [Example 41, 6,7-dichloro-N-cyclopentyl-4-[6-(1,1-dioxidothiomorpholin-4-yl)pyridin-3-yl]phthalazin-1-amine]		805 nM
O=S(=O)(c1ccccc1)N1CC=C(c2nnc(NC3CCCC3)c3cc(Cl)c(Cl)cc23)CC1 [Example 69, 6,7-dichloro-N-cyclopentyl-4-[1-(phenylsulfonyl)-1,2,3,6-tetrahydropyridin-4-yl]phthalazin-1-amine]		2350 nM
O=C(c1nnc(NC2CCCC2)c2cc(Cl)c(Cl)cc12)N1CCS(=O)(=O)CC1 [Example 50, [6,7-dichloro-4-(cyclopentylamino)phthalazin-1-yl](1,1-dioxidothiomorpholin-4-yl)methanone]		5060 nM
O=C(Cn1cc(-c2nnc(NC3CCCC3)c3cc(Cl)c(Cl)cc23)cn1)N1CCOCC1 [Example 65, 2-{4-[6,7-dichloro-4-(cyclopentylamino)phthalazin-1-yl]-1H-pyrazol-1-yl}-1-(morpholin-4-yl)ethanone]		551 nM
NC(=O)CC(=O)N1CC=C(c2nnc(NC3CCCC3)c3cc(Cl)c(Cl)cc23)CC1 [Example 83, 3-{4-[6,7-dichloro-4-(cyclopentylamino)phthalazin-1-yl]-3,6-dihydropyridin-1(2H)-yl}-3-oxopropanamide]		816 nM
